Source: PubChem BioAssay (NCI)
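The compound was tested at five concentrations on cells cultured in 96-well plates, with a 48-hour exposure period. At the TGI there is no net growth.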

What was measured:
Experiment in all cases: NCI tumour cell line growth inhibition, 48 h
HOP-92 NSCLC = test system: HOP-92 NSCLC
NCI-H23 lung = test system: NCI-H23 lung
SK-MEL-28 melanoma = test system: SK-MEL-28 melanoma
COLO 205 colon = test system: COLO 205 colon
OVCAR-8 ovarian = test system: OVCAR-8 ovarian
T-47D breast = test system: T-47D breast
HCC-2998 colon = test system: HCC-2998 colon
NCI-H226 lung = test system: NCI-H226 lung
SW-620 colon = test system: SW-620 colon
NCI-H460 lung = test system: NCI-H460 lung
ACHN renal = test system: ACHN renal
SF-295 CNS = test system: SF-295 CNS
SF-539 CNS = test system: SF-539 CNS
SK-OV-3 ovarian = test system: SK-OV-3 ovarian
K-562 leukemia = test system: K-562 leukemia
A498 renal = test system: A498 renal
UACC-257 melanoma = test system: UACC-257 melanoma
786-0 renal = test system: 786-0 renal
TK-10 renal = test system: TK-10 renal
DU-145 prostate = test system: DU-145 prostate
HS 578T breast = test system: HS 578T breast
RXF 393 renal = test system: RXF 393 renal
SK-MEL-2 melanoma = test system: SK-MEL-2 melanoma
UACC-62 melanoma = test system: UACC-62 melanoma
RPMI-8226 leukemia = test system: RPMI-8226 leukemia
HOP-62 NSCLC = test system: HOP-62 NSCLC
MDA-MB-435 = test system: MDA-MB-435
MCF7 breast = test system: MCF7 breast
SN12C renal = test system: SN12C renal
MALME-3M melanoma = test system: MALME-3M melanoma
MDA-N = test system: MDA-N
A549 NSCLC = test system: A549 NSCLC
MDA-MB-231 breast = test system: MDA-MB-231 breast
KM12 colon = test system: KM12 colon
SR leukemia = test system: SR leukemia
UO-31 renal = test system: UO-31 renal
SNB-75 CNS = test system: SNB-75 CNS
SNB-19 CNS = test system: SNB-19 CNS
OVCAR-5 ovarian = test system: OVCAR-5 ovarian
U251 CNS = test system: U251 CNS
OVCAR-3 ovarian = test system: OVCAR-3 ovarian
OVCAR-4 ovarian = test system: OVCAR-4 ovarian
LOX IMVI melanoma = test system: LOX IMVI melanoma
PC-3 prostate = test system: PC-3 prostate
HL-60(TB) leukemia = test system: HL-60(TB) leukemia
NCI-H522 lung = test system: NCI-H522 lung
CCRF-CEM leukemia = test system: CCRF-CEM leukemia
CAKI-1 renal = test system: CAKI-1 renal
IGROV1 ovarian = test system: IGROV1 ovarian
HCT-116 colon = test system: HCT-116 colon
M14 melanoma = test system: M14 melanoma
HCT-15 colon = test system: HCT-15 colon
SF-268 CNS = test system: SF-268 CNS
HT29 colon = test system: HT29 colon
MOLT-4 leukemia = test system: MOLT-4 leukemia
SK-MEL-5 melanoma = test system: SK-MEL-5 melanoma
NCI/ADR-RES ovarian = test system: NCI/ADR-RES ovarian
EKVX NSCLC = test system: EKVX NSCLC
BT-549 breast = test system: BT-549 breast

Measured: TGI

COc1ccc(Cc2c(-c3ccc(C)cc3)n[nH]c(=O)c2C2C(=O)N(c3ccccc3)N=C2c2ccccc2)cc1 (stereo not drawn)
38.9 µM: SK-MEL-5 melanoma
> 95.7 µM: OVCAR-5 ovarian
> 91.8 µM: PC-3 prostate
83.1 µM: EKVX NSCLC
87.2 µM: TK-10 renal
40.3 µM: COLO 205 colon
> 88.6 µM: CAKI-1 renal
> 89.3 µM: NCI-H460 lung
> 78.8 µM: CCRF-CEM leukemia
58 µM: NCI/ADR-RES ovarian
67.6 µM: HL-60(TB) leukemia
80.3 µM: RPMI-8226 leukemia
46.6 µM: LOX IMVI melanoma
46.4 µM: HCT-116 colon
45.8 µM: OVCAR-3 ovarian
> 67.7 µM: MOLT-4 leukemia
52.5 µM: SK-MEL-2 melanoma
> 96.6 µM: OVCAR-8 ovarian
84.3 µM: A549 NSCLC
> 76.6 µM: K-562 leukemia
> 90.4 µM: MDA-MB-231 breast
65.4 µM: A498 renal
> 90.3 µM: SK-MEL-28 melanoma
57 µM: RXF 393 renal
40.4 µM: UACC-62 melanoma
81.9 µM: NCI-H226 lung
72.1 µM: NCI-H23 lung
79.5 µM: HCC-2998 colon
58.3 µM: MDA-N
82.9 µM: HS 578T breast
60.8 µM: SF-295 CNS
> 91.3 µM: MCF7 breast
56.1 µM: SF-539 CNS
45 µM: MDA-MB-435
81.3 µM: SNB-75 CNS
85.1 µM: IGROV1 ovarian
65.2 µM: MALME-3M melanoma
> 95.6 µM: SN12C renal
75.3 µM: HOP-92 NSCLC
57.1 µM: KM12 colon
81.2 µM: UACC-257 melanoma
> 79.3 µM: SR leukemia
81.8 µM: M14 melanoma
not listed: BT-549 breast
> 100 µM: all other assays above

CC(CO)CCNc1ncnc2c1ncn2CCC#N (stereo not drawn)
not listed: SK-MEL-2 melanoma | U251 CNS | HCT-15 colon | BT-549 breast
> 100 µM: all other assays above

CCN(CC)CC1CCCCN1CC(=O)N1c2ccccc2NC(=O)c2ccccc21 (stereo not drawn)
44.5 µM: UO-31 renal
not listed: BT-549 breast
> 100 µM: all other assays above

C(CCCCc1nnc(N2CCOCC2)o1)CCCc1nnc(N2CCOCC2)o1
not listed: T-47D breast | HCC-2998 colon | HS 578T breast | UACC-62 melanoma | RPMI-8226 leukemia | MALME-3M melanoma | SR leukemia | NCI-H522 lung | SF-268 CNS
> 100 µM: all other assays above

NC(=S)C1=C(N)Oc2c(c(=O)oc3ccccc23)C1c1ccc(Br)cc1 (stereo not drawn)
63.2 µM: SR leukemia
not listed: T-47D breast | NCI-H226 lung | HS 578T breast | RXF 393 renal | RPMI-8226 leukemia | KM12 colon | MOLT-4 leukemia
> 100 µM: all other assays above
